# Target: T1, recombinant human ALX receptor (Homo sapiens, UniProt P25090)
# T1 construct: expressed in transfected cells; host or cells: HEK293 (HEK293-hALXR-Gα16)
# T1 sequence (P25090 1-351): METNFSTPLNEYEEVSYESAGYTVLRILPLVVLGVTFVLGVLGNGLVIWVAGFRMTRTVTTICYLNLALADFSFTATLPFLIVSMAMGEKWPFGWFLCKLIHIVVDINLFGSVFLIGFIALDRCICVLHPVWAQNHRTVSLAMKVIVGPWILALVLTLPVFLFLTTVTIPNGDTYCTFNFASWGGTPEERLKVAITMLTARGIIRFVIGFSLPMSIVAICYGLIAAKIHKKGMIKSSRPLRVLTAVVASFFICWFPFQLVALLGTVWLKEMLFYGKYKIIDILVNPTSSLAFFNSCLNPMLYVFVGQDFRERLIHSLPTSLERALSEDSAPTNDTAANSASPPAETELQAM
# Experiment: Intracellular calcium measurements (FLIPR), ALX receptor agonistic activity
# Format: cell-based
# Settings: HEK293-hALXR-Gα16 cells, Fluo-4 calcium signal, normalized to WKYMVm 10 nM
# Procedure, shortened: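 HEK293 cells co-expressing human ALX receptor and Gα16 were loaded with 1 μM Fluo-4 AM for 60 min at 37° C., then exposed to serially diluted compounds on FLIPR Tetra. Peak fluorescence above baseline (ex 488/em 540 nm) was normalized to 10 nM WKYMVm as high control.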
row,EC50 [nM],SMILES
1,167,"COc1ccc(C[C@@H](NC(=O)NCCc2ccc3c(c2)OCO3)c2nc3ccccc3[nH]2)cc1 [Example 299, (R)-1-(1-(1H-Benzo[d]imidazol-2-yl)-2-(4-methoxyphenyl)ethyl)-3-(2-(benzo[d][1,3]dioxol-5-yl)ethyl)urea]"
2,82,"COc1ccc(C[C@@H](NC(=O)NCCc2ccc(F)c(F)c2)c2nc3ccccc3[nH]2)cc1 [Example 300, (R)-1-(1-(1H-Benzo[d]imidazol-2-yl)-2-(4-methoxyphenyl)ethyl)-3-(3,4-difluorophenethyl)urea]"
3,66,"COc1ccc(C[C@@H](NC(=O)N[C@H](C)c2ccc(C)cc2)c2nc3ccccc3[nH]2)cc1 [Example 301, 1-((R)-1-(1H-Benzo[d]imidazol-2-yl)-2-(4-methoxyphenyl)ethyl)-3-((R)-1-(p-tolyl)ethyl)urea]"
4,129,"COc1ccc(C[C@@H](NC(=O)NCCc2ccc(Cl)cc2)c2nc3ccccc3[nH]2)cc1 [Example 302, (R)-1-(1-(1H-Benzo[d]imidazol-2-yl)-2-(4-methoxyphenyl)ethyl)-3-(4-chlorophenethyl)urea]"
5,426,"COc1ccc(C[C@@H](NC(=O)NCc2cc(Cl)ccc2Cl)c2nc3ccccc3[nH]2)cc1 [Example 303, (R)-1-(1-(1H-Benzo[d]imidazol-2-yl)-2-(4-methoxyphenyl)ethyl)-3-(2,5-dichlorobenzyl)urea]"
6,141,"COc1ccc(C[C@@H](NC(=O)NCc2c(Cl)cccc2Cl)c2nc3ccccc3[nH]2)cc1 [Example 304, (R)-1-(1-(1H-Benzo[d]imidazol-2-yl)-2-(4-methoxyphenyl)ethyl)-3-(2,6-dichlorobenzyl)urea]"
7,80,"COc1ccc(C[C@@H](NC(=O)NCC2CCCc3ccccc32)c2nc3ccccc3[nH]2)cc1 (stereo partly drawn) [Example 305, 1-((R)-1-(1H-Benzo[d]imidazol-2-yl)-2-(4-methoxyphenyl)ethyl)-3-((1,2,3,4-tetrahydronaphthalen-1-yl)methyl)urea]"
8,60,"COc1ccc(C[C@@H](NC(=O)NCCc2cc(C)ccc2C)c2nc3ccccc3[nH]2)cc1 [Example 306, (R)-1-(1-(1H-Benzo[d]imidazol-2-yl)-2-(4-methoxyphenyl)ethyl)-3-(2,5-dimethylphenethyl)urea]"
9,50,"COc1ccc(C[C@@H](NC(=O)NCc2cccc(Cl)c2Cl)c2nc3ccccc3[nH]2)cc1 [Example 307, (R)-1-(1-(1H-Benzo[d]imidazol-2-yl)-2-(4-methoxyphenyl)ethyl)-3-(2,3-dichlorobenzyl)urea]"
10,14,"COc1ccc(C[C@@H](NC(=O)Nc2cc(C3CC3)nn2C)c2nc3ccccc3[nH]2)cc1 [Example 314, (R)-1-(1-(1H-Benzo[d]imidazol-2-yl)-2-(4-methoxyphenyl)ethyl)-3-(3-cyclopropyl-1-methyl-1H-pyrazol-5-yl)urea]"
11,299,"COc1ccc(C[C@@H](NC(=O)Nc2cccnc2)c2nc3ccccc3[nH]2)cc1 [Example 315, (R)-1-(1-(1H-Benzo[d]imidazol-2-yl)-2-(4-methoxyphenyl)ethyl)-3-(pyridin-3-yl)urea]"
12,185,"COc1ccc(C[C@@H](NC(=O)N[C@H](C)c2ccc(F)cc2)c2nc3ccccc3[nH]2)cc1 [Example 320, 1-((R)-1-(1H-Benzo[d]imidazol-2-yl)-2-(4-methoxyphenyl)ethyl)-3-((R)-1-(4-fluorophenyl)ethyl)urea]"
13,128,"COc1ccc(C[C@@H](NC(=O)N[C@@H](C)c2ccc(F)cc2)c2nc3ccccc3[nH]2)cc1 [Example 321, 1-((R)-1-(1H-Benzo[d]imidazol-2-yl)-2-(4-methoxyphenyl)ethyl)-3-((S)-1-(4-fluorophenyl)ethyl)urea]"
14,585,"COc1ccc(C[C@@H](NC(=O)N[C@H](C)c2ccc(Br)cc2)c2nc3ccccc3[nH]2)cc1 [Example 322, 1-((R)-1-(1H-Benzo[d]imidazol-2-yl)-2-(4-methoxyphenyl)ethyl)-3-((R)-1-(4-bromophenyl)ethyl)urea]"
15,44,"COc1ccc(C[C@@H](NC(=O)N[C@@H](C)c2cccc(OC)c2)c2nc3ccccc3[nH]2)cc1 [Example 323, 1-((R)-1-(1H-Benzo[d]imidazol-2-yl)-2-(4-methoxyphenyl)ethyl)-3-((S)-1-(3-methoxyphenyl)ethyl)urea]"
16,712,"COc1ccc(C[C@@H](NC(=O)N[C@H](C)c2cccc(Cl)c2)c2nc3ccccc3[nH]2)cc1 [Example 324, 1-((R)-1-(1H-Benzo[d]imidazol-2-yl)-2-(4-methoxyphenyl)ethyl)-3-((R)-1-(3-chlorophenyl)ethyl)urea]"
17,186,"COc1ccc(C[C@@H](NC(=O)N[C@@H](C)c2cccc(Cl)c2)c2nc3ccccc3[nH]2)cc1 [Example 325, 1-((R)-1-(1H-Benzo[d]imidazol-2-yl)-2-(4-methoxyphenyl)ethyl)-3-((S)-1-(3-chlorophenyl)ethyl)urea]"

row,EC50 [nM],SMILES
1,46,"COc1ccc(C[C@@H](NC(=O)N[C@@H](C)c2ccccc2OC)c2nc3ccccc3[nH]2)cc1 [Example 326, 1-((R)-1-(1H-Benzo[d]imidazol-2-yl)-2-(4-methoxyphenyl)ethyl)-3-((S)-1-(2-methoxyphenyl)ethyl)urea]"
2,310,"COc1ccc(C[C@@H](NC(=O)N[C@H](C)c2ccccc2OC)c2nc3ccccc3[nH]2)cc1 [Example 327, 1-((R)-1-(1H-Benzo[d]imidazol-2-yl)-2-(4-methoxyphenyl)ethyl)-3-((R)-1-(2-methoxyphenyl)ethyl)urea]"
3,152,"COc1ccc(C[C@@H](NC(=O)N[C@@H](C)c2ccc(Cl)cc2)c2nc3ccccc3[nH]2)cc1 [Example 328, 1-((R)-1-(1H-Benzo[d]imidazol-2-yl)-2-(4-methoxyphenyl)ethyl)-3-((S)-1-(4-chlorophenyl)ethyl)urea]"
4,285,"COc1ccc(C[C@@H](NC(=O)N[C@H](C)c2ccc(Cl)cc2)c2nc3ccccc3[nH]2)cc1 [Example 329, 1-((R)-1-(1H-Benzo[d]imidazol-2-yl)-2-(4-methoxyphenyl)ethyl)-3-((R)-1-(4-chlorophenyl)ethyl)urea]"
5,205,"COc1ccc(C[C@@H](NC(=O)N[C@@H](C)c2ccc(OC)cc2)c2nc3ccccc3[nH]2)cc1 [Example 330, 1-((R)-1-(1H-Benzo[d]imidazol-2-yl)-2-(4-methoxyphenyl)ethyl)-3-((S)-1-(4-methoxyphenyl)ethyl)urea]"
6,146,"COc1ccc(C[C@@H](NC(=O)N[C@@H](C)c2ccc(Br)cc2)c2nc3ccccc3[nH]2)cc1 [Example 331, 1-((R)-1-(1H-Benzo[d]imidazol-2-yl)-2-(4-methoxyphenyl)ethyl)-3-((S)-1-(4-bromophenyl)ethyl)urea]"
7,101,"COc1ccc(C[C@@H](NC(=O)N[C@H](C)c2cccc(OC)c2)c2nc3ccccc3[nH]2)cc1 [Example 332, 1-((R)-1-(1H-Benzo[d]imidazol-2-yl)-2-(4-methoxyphenyl)ethyl)-3-((R)-1-(3-methoxyphenyl)ethyl)urea]"
8,105,"COc1ccc(C[C@@H](NC(=O)N[C@@H](C)c2ccc(C)cc2)c2nc3ccccc3[nH]2)cc1 [Example 333, 1-((R)-1-(1H-Benzo[d]imidazol-2-yl)-2-(4-methoxyphenyl)ethyl)-3-((S)-1-(p-tolyl)ethyl)urea]"
9,111,"COc1ccc(C[C@@H](NC(=O)N[C@@H]2CCc3ccccc32)c2nc3ccccc3[nH]2)cc1 [Example 334, 1-((R)-1-(1H-Benzo[d]imidazol-2-yl)-2-(4-methoxyphenyl)ethyl)-3-((R)-2,3-dihydro-1H-inden-1-yl)urea]"
10,372,"CCC[C@@H](NC(=O)N[C@H](Cc1ccc(OC)cc1)c1nc2ccccc2[nH]1)c1ccccc1 [Example 335, 1-((R)-1-(1H-Benzo[d]imidazol-2-yl)-2-(4-methoxyphenyl)ethyl)-3-((R)-1-phenylbutyl)urea]"
11,248,"COc1ccc(C[C@@H](NC(=O)N[C@H](C)c2ccc(OC)cc2)c2nc3ccccc3[nH]2)cc1 [Example 336, 1-((R)-1-(1H-Benzo[d]imidazol-2-yl)-2-(4-methoxyphenyl)ethyl)-3-((R)-1-(4-methoxyphenyl)ethyl)urea]"
12,380,"COC(=O)c1ccc([C@H](C)NC(=O)N[C@H](Cc2ccc(OC)cc2)c2nc3ccccc3[nH]2)cc1 [Example 337, Methyl 4-((S)-1-(3-((R)-1-(1H-benzo[d]imidazol-2-yl)-2-(4-methoxyphenyl)ethyl)ureido)ethyl)benzoate]"
13,36,"COc1ccc(C[C@@H](NC(=O)NC(C)c2cn3ccsc3n2)c2nc3ccccc3[nH]2)cc1 (stereo partly drawn) [Example 338, 1-((R)-1-(1H-Benzo[d]imidazol-2-yl)-2-(4-methoxyphenyl)ethyl)-3-(1-(imidazo[2,1-b]thiazol-6-yl)ethyl)urea]"
14,39,"COc1ccc(C[C@@H](NC(=O)N[C@H](C(N)=O)c2ccccc2)c2nc3ccccc3[nH]2)cc1 [Example 339, (S)-2-(3-((R)-1-(1H-Benzo[d]imidazol-2-yl)-2-(4-methoxyphenyl)ethyl)ureido)-2-phenylacetamide]"
15,268,"COc1ccc(C[C@@H](NC(=O)NC2(c3ccc(Br)cc3)CC2)c2nc3ccccc3[nH]2)cc1 [Example 340, (R)-1-(1-(1H-Benzo[d]imidazol-2-yl)-2-(4-methoxyphenyl)ethyl)-3-(1-(4-bromophenyl)cyclopropyl)urea]"
16,397,"COc1ccc(C[C@@H](NC(=O)NC2(c3ccc(F)cc3)CC2)c2nc3ccccc3[nH]2)cc1 [Example 341, (R)-1-(1-(1H-Benzo[d]imidazol-2-yl)-2-(4-methoxyphenyl)ethyl)-3-(1-(4-fluorophenyl)cyclopropyl)urea]"

# — patent US9663473B2 (Actelion Pharmaceuticals Ltd, priority 2013, dated 2017)
